From patent publication US20250099596A1, “TETRAHYDRONAPHTHALENE COMPOUND, AND PREPARATION METHOD THEREFOR AND USE THEREOF IN MEDICINE” (Jiangsu Hengrui Pharmaceuticals Co., Ltd., priority 2021, published 2025)
Like-named read-outs stand apart in the source and are kept apart here.

How the values were obtained:
[1] = system: MCF7 cells; test: Inhibitory effects on MCF7 cell proliferation (CellTiter-Glo); assay type: cell-based; conditions: Homo sapiens, 144 h, 6 days incubation, read-out: IC50 (nM), inhibition of MCF7 cell proliferation
How it was run: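 MCF7 cells seeded at 3,000 cells/well in MEM with 2% FBS, then treated next day with 9 final concentrations (4-fold dilutions from 1000 nM) for 6 days at 37° C; blank control 0.5% DMSO. Viability read by CellTiter-Glo luminescence; IC50 fitted from concentration–signal data.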

[2] = Pharmacokinetic evaluation, C57 mouse test; assay type: in vivo; conditions: C57 mice; for AUC(0-t): read-out: Area under curve AUC0-t; for half-life: read-out: Half-life T1/2 (converted); for Cmax: read-out: Plasma concentration Cmax
Description: With C57 mice as test animals, the plasma concentration of the compound of Example 26-1 was determined by LC/MS/MS at different time points after intragastric (i.g.)/intravenous (i.v.) administration to C57 mice. The pharmacokinetic behavior of the compound of the present disclosure in C57 mice was studied and its pharmacokinetic profile was evaluated.
Eighteen female C57 mice were evenly divided into 2 groups and fasted overnight, and the 2 groups were dosed intragastrically and intravenously, respectively. The mice were provided by Zhejiang Vital River Laboratory Animal Technology Co., Ltd.
An appropriate amount of the compound of Example 26-1 was weighed out and mixed with 5% DMSO+5% Tween 80+90% normal saline to make a 0.1 mg/mL colorless clear solution (for the intragastric administration group) and a 0.1 mg/mL colorless clear solution (for the intravenous administration group).
The intragastric administration group: the dose was 2.0 mg/kg, and the volume was 0.2 mL/10 g.
The intravenous administration group: the dose was 1.0 mg/kg, and the volume was 0.1 mL/10 g.
The intragastric administration group: Blood (0.1 mL) was collected into EDTA-K2 anticoagulation tubes before administration and 0.25 h, 0.5 h, 1.0 h, 2.0 h, 4.0 h, 6.0 h, 8.0 h, 11.0 h and 24.0 h after administration and centrifuged at 10,000 rpm for 1 min (4° C.). The plasma was separated within 1 h and stored at −20° C. before analysis. The process from blood collection to centrifugation was performed in an ice bath. Two hours after administration, feeding was resumed.
The intravenous administration group: Blood was collected before administration and 5 min, 15 min, 0.5 h, 1.0 h, 2.0 h, 4.0 h, 8.0 h, 11.0 h and 24 h after administration and processed as in the intragastric administration group.
The plasma concentration of the test compound was determined after administration of different concentrations of the test compound to C57 mice: plasma samples (25 μL) were collected from C57 mice at various time points after administration, proteins were precipitated with 200 μL of acetonitrile, and 50 μL of camptothecin (100 ng/mL) was added. The mixtures were vortexed for 5 min and centrifuged at 4000 rpm for 10 min. […] of supernatant was collected for LC-MS/MS analysis.

[3] = system: human breast cancer cell MCF-7 (Y537S) xenograft tumors; test: Pharmacodynamic test: MCF-7 (Y537S) xenograft tumors in BEIGE SCID mice; assay type: in vivo; conditions: for Number of remaining animals/group / Mean tumor volume (mm^3) D 0 / Mean tumor volume (mm^3) D 28 / TGI (%) D 28: i.g., qd/28 d; for Mean tumor volume (mm^3) D 0: D 0 (day of grouping)
Excerpt: To evaluate the inhibitory effect of the compound of the present disclosure on the growth of human breast cancer cell MCF-7 (Y537S) xenograft tumors in BEIGE SCID mice.
A 2% Tween 80+98% PEG-400 solution was used.
Animals: BEIGE SCID female mice, purchased from Beijing Vital River Laboratory Animal Technology Co., Ltd. (certificate No. SCXK (Beijing) 2016-0006), weighing about 19 g on purchase.
BEIGE SCID mice were acclimatized and then grouped as follows:
MCF-7 (Y537S) cells in the logarithmic growth phase were subcutaneously inoculated at 1.0×10^7/mouse/200 μL (containing 100 μL of matrigel) into the right flank of female BEIGE SCID mice. After 18 days, when the tumor volume of tumor-bearing mice reached about 170 mm^3, the mice were randomly divided into 4 groups of 8 by tumor volume and body weight: a vehicle control group, an Example 26-1 5 mpk group, an Example 26-1 15 mpk group, and an Example 26-1 45 mpk group. The day of grouping was set as DO, and intragastric administration was started and performed once a day for 28 days. The 28th day after administration was set as D28 (Table 7). For the tumor-bearing mice, the tumor volume was measured with a vernier caliper and the body weight was measured with a balance twice a week, and data were recorded.
All data were plotted and statistically analyzed using Excel and GraphPad Prism 8 software.
The tumor volume (V) was calculated as follows: V=1/2×a×b^2, where a and b represent length and width, respectively.
The relative tumor proliferation rate T/C (%)=(T−T0)/(C−C0)×100(%), where T and C are tumor volumes of a treatment group and the control group respectively at the end of the experiment; T0 and C0 are tumor volumes of a treatment group and the control group respectively at the beginning of the experiment.
Tumor growth inhibition ? TGI (%)=1−T/C (%), and if TGI (%) exceeds 100%, it will not be shown as a specific value but >100%.

[4] = female, mouse, plasma, iv, i.v., 1.0 mg/kg
[5] = female, mouse, plasma, po, i.g., 2.0 mg/kg

IC50 [1]: 0.59 nM
Clearance CL/F ([2]; i.v., 1.0 mg/kg): 15.4 mL/min/kg
AUC(0-t) [2, 4]: 1070 ng·h/mL
half-life [2, 4]: 4 h
Cmax [2, 4]: 1220 ng/mL
Vd/F ([2]; female, mouse, plasma, po, i.g., 2.0 mg/kg, read-out: Apparent distribution volume Vz/F): 28.3 L/kg
AUC(0-t) [2, 5]: 517 ng·h/mL
CL/F ([2]; female, mouse, plasma, po, i.g., 2.0 mg/kg, read-out: Clearance CL/F): 62.1 mL/min/kg
half-life [2, 5]: 5.3 h
Cmax [2, 5]: 59 ng/mL
Number of remaining animals/group ([3]; 5 mpk): 8/8
Number of remaining animals/group ([3]; 15 mpk): 8/8
Number of remaining animals/group ([3]; 45 mpk): 8/8
Compound: CC(C)C[C@H]1CCc2cc(O)ccc2[C@H]1c1ccc(N2CCC(CN3CCN(c4ccc5c(c4)CN([C@H]4CCC(=O)NC4=O)C5=O)CC3)CC2)cc1 [Example 26-1, (S)-3-(5-(4-((1-(4-((1R,2R)-6-Hydroxy-2-isobutyl-1,2,3,4-tetrahydronaphthalen-1-yl)phenyl)piperidin-4-yl)methyl)piperazin-1-yl)-1-oxoisoindolin-2-yl)piperidine-2,6-dione]
Effect on the body weight of BEIGE SCID mice ([3]; i.g., 5, 15, 45 mpk, qd for 28 days): did not affect mouse body weight
Mean tumor volume (mm^3) D 0 ([3]; 5 mpk): 170.2 mm^3
Mean tumor volume (mm^3) D 28 ([3]; 5 mpk): 305.0 mm^3
TGI (%) D 28 ([3]; 5 mpk): 72%
Mean tumor volume (mm^3) D 0 ([3]; 15 mpk): 168.2 mm^3
Mean tumor volume (mm^3) D 28 ([3]; 15 mpk): 219.7 mm^3
TGI (%) D 28 ([3]; 15 mpk): 89%
Mean tumor volume (mm^3) D 0 ([3]; 45 mpk): 168.6 mm^3
Mean tumor volume (mm^3) D 28 ([3]; 45 mpk): 192.0 mm^3
TGI (%) D 28 ([3]; 45 mpk): 95%
